Assay results from publication PMC12680549, “Impact of Seasonal Variation on Antioxidant, Enzyme Inhibitory, and Anti‐Inflammatory Potentials of Cistus creticus Leaf Extracts” (ChemistryOpen, 2025).

Test system: T1, urease
T1 construct: gene urea amidohydrolase; the jack bean enzyme is only a guess from the usual assay; Helicobacter pylori is named only as background
Assay: phenol-hypochlorite assay, […] nm
Assay type: biochemical, Canavalia ensiformis
Conditions: 17 mM urea, 30 °C, 50 min; enzyme source not stated

## NC(N)=S [Thiourea]
  Antiurease / IC50 μg mL^-1: 11.57 ± 0.68 µg/mL
